Laboratory results from ChEMBL document CHEMBL1129613, “Design, synthesis, and biological evaluation of ellipticine-estradiol conjugates” (J Med Chem, 1996).

Assays:
[1] = target: Estrogen receptor (Rattus norvegicus) (UniProt P06211+Q62986); assay: Relative binding affinity for estrogen receptor; assay type: protein assay
IGROV-1 [2] = assay: Cytotoxic effect on growth inhibition of ovarian cancer IGROVI cells; assay type: functional; settings: Homo sapiens
MOLT-4 [3] = assay: Cytotoxic effect on leukemia MOLT-4 cells; assay type: functional; settings: Homo sapiens
LOX IMVI = assay: Cytotoxic effect on growth inhibition of melanoma LOX IMVI cells; assay type: functional; settings: Homo sapiens
MCF7 [4] = assay: Cytotoxic effect on growth inhibition of breast cancer MCF-7 cells; assay type: functional; settings: Homo sapiens
MCF7 [5] = assay: Cytotoxic effect of growth inhibition of breast cancer MCF-7/ADR-RES cells; assay type: functional; settings: Homo sapiens
MDA-MB-231 = assay: Cytotoxic effect on growth inhibition of breast cancer MDA-MB-231/ATCC cells; assay type: functional; settings: Homo sapiens
NCI-H322M [6] = assay: Cytotoxic effect on nonsmall cell lung cancer NCI-H322M cells; assay type: functional; settings: Homo sapiens
PC-3 = assay: Cytotoxic effect on growth inhibition of prostate cancer PC-3 cells; assay type: functional; settings: Homo sapiens
SN12C = assay: Cytotoxic effect on growth inhibition of renal cancer SN12C cells; assay type: functional; settings: Homo sapiens
U-251 = assay: Cytotoxic effect on growth inhibition of CNS cancer U251 cells; assay type: functional; settings: Homo sapiens
[7] = target: DNA topoisomerase 2-alpha (Homo sapiens, UniProt P11388); assay: Inhibitory activity against topoisomerase II determined in catenation inhibition assay
Sequence of DNA topoisomerase 2-alpha (P11388 whole entry): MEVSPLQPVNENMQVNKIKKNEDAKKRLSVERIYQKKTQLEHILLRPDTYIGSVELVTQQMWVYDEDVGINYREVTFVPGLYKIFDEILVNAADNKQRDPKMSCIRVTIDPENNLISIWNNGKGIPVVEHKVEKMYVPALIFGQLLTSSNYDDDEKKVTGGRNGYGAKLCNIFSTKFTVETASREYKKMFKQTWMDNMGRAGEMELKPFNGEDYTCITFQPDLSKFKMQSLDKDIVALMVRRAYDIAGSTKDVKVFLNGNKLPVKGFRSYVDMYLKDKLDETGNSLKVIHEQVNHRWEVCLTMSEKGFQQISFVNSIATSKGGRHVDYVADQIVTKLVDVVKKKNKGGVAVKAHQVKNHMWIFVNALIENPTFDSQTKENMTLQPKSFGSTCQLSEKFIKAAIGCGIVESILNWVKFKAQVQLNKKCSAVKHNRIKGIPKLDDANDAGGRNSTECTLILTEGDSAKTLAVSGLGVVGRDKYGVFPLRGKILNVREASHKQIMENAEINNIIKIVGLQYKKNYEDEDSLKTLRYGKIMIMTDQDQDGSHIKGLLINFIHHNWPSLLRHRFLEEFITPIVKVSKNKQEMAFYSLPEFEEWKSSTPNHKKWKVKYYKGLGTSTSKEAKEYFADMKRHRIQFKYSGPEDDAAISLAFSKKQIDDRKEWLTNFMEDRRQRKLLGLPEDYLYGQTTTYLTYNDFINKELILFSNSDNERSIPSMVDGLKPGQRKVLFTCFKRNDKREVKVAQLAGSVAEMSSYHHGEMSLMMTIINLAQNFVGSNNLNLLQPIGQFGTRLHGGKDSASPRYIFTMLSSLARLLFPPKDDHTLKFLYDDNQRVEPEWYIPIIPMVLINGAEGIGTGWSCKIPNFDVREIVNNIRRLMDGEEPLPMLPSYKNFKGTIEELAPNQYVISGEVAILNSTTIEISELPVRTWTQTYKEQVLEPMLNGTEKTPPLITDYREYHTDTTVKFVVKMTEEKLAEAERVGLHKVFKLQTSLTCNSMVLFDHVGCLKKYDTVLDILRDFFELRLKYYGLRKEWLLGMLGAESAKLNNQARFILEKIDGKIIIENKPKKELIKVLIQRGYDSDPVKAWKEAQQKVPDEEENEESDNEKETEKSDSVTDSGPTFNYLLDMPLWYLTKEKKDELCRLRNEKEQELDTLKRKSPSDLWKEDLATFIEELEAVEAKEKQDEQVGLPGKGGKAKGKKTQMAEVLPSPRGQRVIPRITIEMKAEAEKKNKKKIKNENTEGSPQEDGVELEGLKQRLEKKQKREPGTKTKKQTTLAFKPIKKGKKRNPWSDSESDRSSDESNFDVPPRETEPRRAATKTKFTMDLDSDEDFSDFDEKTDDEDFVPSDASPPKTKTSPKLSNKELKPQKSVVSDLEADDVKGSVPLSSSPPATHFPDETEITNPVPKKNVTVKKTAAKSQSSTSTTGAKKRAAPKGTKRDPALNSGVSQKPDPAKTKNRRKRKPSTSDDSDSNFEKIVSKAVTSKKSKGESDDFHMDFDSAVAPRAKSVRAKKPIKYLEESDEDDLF

HCT-116 = assay: Cytotoxic effect on growth inhibition of colon cancer HCT116 cells; assay type: functional; settings: Homo sapiens
Hs-578T = assay: Cytotoxic effect on growth inhibition of breast cancer HS 578T cells; assay type: functional; settings: Homo sapiens
NCI-H322M [8] = assay: Cytotoxic effect on growth inhibition of nonsmall cell lung cancer NCI-H322M cells; assay type: functional; settings: Homo sapiens
MOLT-4 [9] = assay: Cytotoxic effect on growth inhibition of leukemia MOLT-4 cells; assay type: functional; settings: Homo sapiens
IGROV-1 [10] = assay: Cytotoxic effect on ovarian cancer IGROVI cells; assay type: functional; settings: Homo sapiens

| SMILES | relative binding affinity (RBA) [1] | IC50 [7] [µM] | GI50 (IGROV-1 [2]) [µM] | GI50 (MOLT-4 [3]) [µM] | GI50 (LOX IMVI) [µM] | GI50 (MCF7 [4]) [µM] | GI50 (MCF7 [5]) [µM] | GI50 (MDA-MB-231) [µM] | GI50 (NCI-H322M [6]) [µM] | GI50 (PC-3) [µM] | GI50 (SN12C) [µM] | GI50 (U-251) [µM] | GI50 (HCT-116) [µM] | GI50 (Hs-578T) [µM] | GI50 (NCI-H322M [8]) [µM] | GI50 (MOLT-4 [9]) [µM] | GI50 (IGROV-1 [10]) [µM] |
| --- | --- | --- | --- | --- | --- | --- | --- | --- | --- | --- | --- | --- | --- | --- | --- | --- | --- |
| C[C@]12CC[C@@H]3c4ccc(O)cc4CC[C@H]3[C@@H]1CC[C@@]2(O)CC(=O)O | 0.039 | – | – | – | – | – | – | – | – | – | – | – | – | – | – | – | – |
| CC(C)(C)OC(=O)NCCCCCCNC(=O)C[C@]1(O)CC[C@H]2[C@@H]3CCc4cc(O)ccc4[C@H]3CC[C@@]21C | 0.056 | – | – | – | – | – | – | – | – | – | – | – | – | – | – | – | – |
| CCOC(=O)C[C@]1(O)CC[C@H]2[C@@H]3CCc4cc(O)ccc4[C@H]3CC[C@@]21C | 3.66 | – | – | – | – | – | – | – | – | – | – | – | – | – | – | – | – |
| C[C@]12CC[C@@H]3c4ccc(O)cc4CC[C@H]3[C@@H]1CC[C@@]2(O)CC(=O)NCCCCCCN | 0.041 | – | – | – | – | – | – | – | – | – | – | – | – | – | – | – | – |
| Cc1c2ccncc2c(C)c2c1[nH]c1ccccc12 [ELLIPTECINE] | – | – | 0.86 | 0.38 | 0.56 | 0.71 | 0.74 | – | – | – | 0.73 | 0.93 | 0.29 | – | 0.31 | – | – |

More lines, main results first:

| relative binding affinity (RBA) [1] | IC50 [7] [µM] | SMILES | GI50 (IGROV-1 [2]) [µM] | GI50 (MOLT-4 [3]) [µM] | GI50 (LOX IMVI) [µM] | GI50 (MCF7 [4]) [µM] | GI50 (MCF7 [5]) [µM] | GI50 (MDA-MB-231) [µM] | GI50 (NCI-H322M [6]) [µM] | GI50 (PC-3) [µM] | GI50 (SN12C) [µM] | GI50 (U-251) [µM] | GI50 (HCT-116) [µM] | GI50 (Hs-578T) [µM] | GI50 (NCI-H322M [8]) [µM] | GI50 (MOLT-4 [9]) [µM] | GI50 (IGROV-1 [10]) [µM] |
| --- | --- | --- | --- | --- | --- | --- | --- | --- | --- | --- | --- | --- | --- | --- | --- | --- | --- |
| 0.132 | 24.1 | Cc1c2c(c(C)c3c1[nH]c1ccccc13)CN(C(=O)NCCCCCCNC(=O)C[C@]1(O)CC[C@H]3[C@@H]4CCc5cc(O)ccc5[C@H]4CC[C@@]31C)C=C2 | 8.53 | 2.9 | 7.97 | 3.39 | 9.96 | 19.7 | 2.68 | 3.51 | 9.56 | 7.64 | 3.55 | 16.6 | – | – | – |
| 0.303 | > 200 | Cc1c2ccncc2c(C)c2c1[nH]c1ccc(C(=O)NCCCCCCNC(=O)C[C@]3(O)CC[C@H]4[C@@H]5CCc6cc(O)ccc6[C@H]5CC[C@@]43C)cc12 | > 100 | – | 51.4 | – | > 100 | 34.7 | – | 74 | > 100 | 55.9 | 31.2 | > 100 | 28 | 38.3 | – |
| – | > 200 | Cc1c2cnccc2c(C)c2c1c1ccccc1n2CC(=O)NCCCCCCNC(=O)C[C@]1(O)CC[C@H]2[C@@H]3CCc4cc(O)ccc4[C@H]3CC[C@@]21C | – | 46.3 | 50.9 | > 100 | > 100 | > 100 | – | 57.1 | > 100 | 72.4 | 39.9 | 46.8 | 71.4 | – | > 100 |
